Laboratory results from patent US20020081566A1, “HIV PROTEIN EPITOPES IMMUNOLOGICALLY HOMOLOGOUS TO HLA” (priority 1992, published 2002).

Columns and labels:
viral gp160 = biological target: T1, viral gp160 (Human immunodeficiency virus type 1 group M subtype B, UniProt P03377); assay type: binding, HIV; conditions: for reactivity of sera / antibodies raised against native gp160 in HIV positive subjects with the peptide region: sera from HIV positive subjects; for binding to viral gp160 of AIDS serum antibodies pre-adsorbed on the peptide and eluted: sera from AIDS affected subjects, HIV western blot stripes, FIGS. 5 and 6
T1 construct: purchased SORIN BIOMEDICA, Saluggia, Italy
T1 sequence (P03377 33-861): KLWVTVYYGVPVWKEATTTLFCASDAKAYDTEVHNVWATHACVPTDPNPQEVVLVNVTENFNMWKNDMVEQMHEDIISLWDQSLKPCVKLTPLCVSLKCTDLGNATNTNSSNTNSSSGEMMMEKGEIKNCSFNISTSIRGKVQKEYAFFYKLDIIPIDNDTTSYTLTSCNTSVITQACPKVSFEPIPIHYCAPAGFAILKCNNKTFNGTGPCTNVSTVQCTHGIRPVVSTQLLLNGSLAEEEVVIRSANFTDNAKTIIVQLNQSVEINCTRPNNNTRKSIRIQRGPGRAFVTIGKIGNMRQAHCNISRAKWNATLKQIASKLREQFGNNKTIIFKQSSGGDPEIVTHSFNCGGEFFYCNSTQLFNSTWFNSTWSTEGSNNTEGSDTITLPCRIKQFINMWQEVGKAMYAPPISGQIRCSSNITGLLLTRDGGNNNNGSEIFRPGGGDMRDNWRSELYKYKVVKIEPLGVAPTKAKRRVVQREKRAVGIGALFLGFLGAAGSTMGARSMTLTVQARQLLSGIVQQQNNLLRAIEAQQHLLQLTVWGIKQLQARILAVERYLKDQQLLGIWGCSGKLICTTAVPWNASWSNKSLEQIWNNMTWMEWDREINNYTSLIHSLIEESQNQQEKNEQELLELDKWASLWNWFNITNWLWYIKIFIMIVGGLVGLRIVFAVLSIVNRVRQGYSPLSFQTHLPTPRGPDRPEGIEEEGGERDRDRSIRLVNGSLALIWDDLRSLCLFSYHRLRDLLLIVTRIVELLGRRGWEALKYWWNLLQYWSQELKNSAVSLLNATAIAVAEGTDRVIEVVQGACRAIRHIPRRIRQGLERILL
Procedure: Sera from AIDS affected subjects are immunoadsorbed on columns of either S. MAP HIV, or MAP HLA 11 or MAP HLA 12 peptide coupled Sepharose (CNBR activated sepharose 4B from […]) and eluted. 1 ml of Sepharose/peptide equilibrated with 0.1 M TRIS HCl pH 8 and 0.5 M NaCl buffer is incubated for 16 hours with 100 μl of serum, washed with 0.1 M TRIS HCl ph 8 and 0.5 M NaCl. The bound antibodies are eluted with a buffer containing 0.2 M glycine pH 2 and 0.5 M NaCl. The eluted antibodies are assayed on HIV western blot commercial stripes (SORIN BIOMEDICA, Saluggia, Italy) and detected using the chemio-luminescence system from […]. […] Lane M is obtained from one of the “in toto” sera and used as control.
The same test is carried out using two sera of AIDS affected patients (FIG. 6), pre-adsorbed with the S. MAP HIV peptide (lanes A and B) or with the HIV 9 peptide (lanes C and D), and eluted.

[1] = biological target: recombinant gp160 protein (Human immunodeficiency virus type 1 group M subtype B, UniProt P03377); conditions: BALB/c female mice, subcutaneous, Freund's incomplete adjuvant, after third immunization; compared with control peptide serum (NMS); FIG. 1
recombinant gp160 protein, sequence (P03377 33-861): as above
Procedure: S.MAP HIV and S. MAP HLA peptides are injected subcutaneously to BALB/c female mice together with Freund's incomplete adjuvant. After the third immunization (for a total of three immunizations at three week intervals) mice sera are tested by an ELISA assay with the recombinant gp160 protein (from Transgene, Strasbourg) as follows: microtiter plastic wells (NUNC) are coated with 0.2 μg of protein resuspended in phospahte buffer pH 9, for 1.5 hours at 37° C., followed by washing with phosphate buffer pH 7, and by further incubating for 1 hour at 37° C. with bovine serum albumin (BSA, 1 mg/ml), to saturate the free sites of solid phase. After three washings, diluted sera in PBS, comprising BSA 1% w/v, are incubated with the coated wells for 1 hour at 37° C. After five washings in PBS, a rabbit anti-mouse Igs serum (SIGMA), 1/1000 diluted, is added. After 45 min. incubation at 37° C., wells are washed five times and 100 μl of chromogen substrate is added to each well (SORIN BIOMEDICA, Saluggia, Italy). The adsorbance is read with an automatic ELISA reader (BIORAD).

[2] = system: syncytium between HIV infected 8E51 LAV cells and not infected CD4+ MOLT3 cells; assay: Syncytium formation inhibition assay; assay type: cell-based; conditions: mice sera; pre-immunization sera as specificity control; FIG. 9
Procedure: In order to check the ability to neutralize the viral infection of sera raised against the HLA homologous regions, mice sera are prepared by immunization with either S. MAP HLA or S. MAP HIV peptides. Sera are assayed for antibody ability to inhibit syncytium cells between HIV infected cells (8E51 LAV cells, AIDS Repository National Insitute of Health, Bethesda, Md. USA, “Journ. Exp. Medicine, 164, 280, 1986) and not infected, CD4+ cells (MOLT3 cells, AIDS Repository National Institute of Health, Bethesda, Md., USA). The syncytiums are counted at the optical microscope and the inhibition percentages are evaluated with reference to syncytiums in a control antibody-free cell culture. As specifity control, sera of mice before immunization are used.

Sequence | reactivity of sera / antibodies raised against native gp160 in HIV positive subjects with the peptide region (viral gp160) | binding to viral gp160 of AIDS serum antibodies pre-adsorbed on the peptide and eluted (viral gp160) | other results
PTKAKRRVV [MAP HIV 12] | react | – | –
IEPLGVAPT [MAP HIV 9] | none of sera from HIV positive subjects are reactive | do not show any reactivity | –
SELYKYKVVK [MAP HIV 11] | react | – | –
TQKYKRQAQ [MAP HLA 11] | – | bind similarly to the viral gp160 | –
TQKYKRQAQADRVNLRKLRGYY [S. MAP HLA, synthetic peptide from HLA class I heavy chain α-1 domain, allele Cw4] | – | – | reaction of sera of peptide immunized mice with the recombinant gp160 protein [1]: react specifically; neutralization of viral fusion (syncytium inhibition) by antibodies of mice immunized with the peptide [2]: same ability to neutralize the viral fusion
NLRKLRGYY [MAP HLA 12] | – | bind similarly to the viral gp160 | binding to a 45 KD protein (likely HLA heavy chains) of AIDS serum antibodies pre-adsorbed on the peptide (viral gp160; one serum, lane E, FIG. 5): also bind to a 45 KD protein
SELYKYKVVKIEPLGVAPTKAKRRVV [S. MAP HIV] | – | bind similarly to the viral gp160 | reaction of sera of peptide immunized mice with the recombinant gp160 protein [1]: react at significantly higher level; neutralization of viral fusion (syncytium inhibition) by antibodies of mice immunized with the peptide [2]: ability to neutralize the viral fusion
